{
  "source": "patent US20130295173A1",
  "about": "“COMPOSITIONS OF STATINS AND OMEGA-3 FATTY ACIDS” (OMTHERA PHARMACEUTICALS, INC., priority 2012, published 2013)",
  "key": {"[1]": {"assay": "Stability testing of statins dissolved in PUFA free acid solvent system", "assay_type": "physicochemical", "conditions": "25° C., 60% RH; for Statin in Oil: PUFA free acid solvent system; for Statin in Oil, Percent: share of total statin", "procedure": "The compositions were then mixed until full dissolution was observed, using a magnetic stir bar and sonication for 30-60 second intervals, taking care to maintain a nitrogen headspace over the solution throughout processing. […] Vials were covered with foil to protect from light and stored at 25° C., 60% RH. One vial of each of the three compositions was retrieved at each timepoint for testing. Procedures as listed in the USP Monograph for Omega-3-Acid Ethyl Ester Capsules were followed for measuring quantities of acid value, peroxide value, and absorbance for fats and fixed oils."}, "[2]": {"assay": "Comparison of solubility of statins in PUFA free acid solvent system and Lovaza ethyl ester solvent system, HPLC assay of supernatant", "procedure": "For this study, ten vials were prepared such that 5 vials contained 2 mL of Lovaza oil and 5 vials contained 2 mL of PUFA free acid solvent system. About 20 mg of each statin were added to one Lovaza oil vial and to one PUFA free acid solvent system vial. Vials containing the samples were blanketed with nitrogen, then sealed. The vials were then sonicated for 1 hour or until contents appeared clear. After sonication, vials which remained clear received additional 20 mg aliquots of their respective statin and were again blanketed with nitrogen. […] The samples were centrifuged and the supernatant was assayed for the respective statin by HPLC."}, "[3]": {"assay": "Solubility of statins in various pH buffers"}, "[4]": {"assay": "Initial solubility of statins in PUFA free acid solvent system (batch #37225)", "assay_type": "physicochemical"}},
  "data": [
    {"smiles": "CC(C)c1c(C(=O)Nc2ccccc2)c(-c2ccccc2)c(-c2ccc(F)cc2)n1CC[C@@H](O)C[C@@H](O)CC(=O)[O-].CC(C)c1c(C(=O)Nc2ccccc2)c(-c2ccccc2)c(-c2ccc(F)cc2)n1CC[C@@H](O)C[C@@H](O)CC(=O)[O-].[Ca+2]", "note": "[Atorvastatin Calcium, atorvastatin calcium]", "values": [
      {"measurement": "Statin in Oil", "setting": "[1]; t = 0", "result": 8.738, "unit": "mg/g"},
      {"measurement": "Statin in Oil, Percent", "setting": "[1]; t = 0", "result": 100, "unit": "%"},
      {"measurement": "Statin in Oil", "setting": "[1]; t = 1 week", "result": 8.275, "unit": "mg/g"},
      {"measurement": "Statin in Oil, Percent", "setting": "[1]; t = 1 week", "result": 100, "unit": "%"},
      {"measurement": "Statin in Oil", "setting": "[1]; t = 2 week", "result": 7.839, "unit": "mg/g"},
      {"measurement": "Statin in Oil, Percent", "setting": "[1]; t = 2 week", "result": 100, "unit": "%"}
    ]},
    {"smiles": "O=C([O-])C[C@H](O)C[C@H](O)/C=C/c1c(C2CC2)nc2ccccc2c1-c1ccc(F)cc1.O=C([O-])C[C@H](O)C[C@H](O)/C=C/c1c(C2CC2)nc2ccccc2c1-c1ccc(F)cc1.[Ca+2]", "note": "[Pitavastatin Calcium, pitavastatin calcium]", "values": [
      {"measurement": "Solubility in Lovaza (ethyl ester) Solvent System", "setting": "[2]", "result": 0.615, "unit": "mg/g"},
      {"measurement": "Solubility in PUFA Free Acid Solvent System", "setting": "[2]", "result": 12.771, "unit": "mg/g"}
    ]},
    {"smiles": "CC[C@H](C)C(=O)O[C@H]1C[C@H](O)C=C2C=C[C@H](C)[C@H](CC[C@@H](O)C[C@@H](O)CC(=O)O)[C@H]21", "note": "[Pravastatin Sodium, pravastatin sodium]", "values": [
      {"measurement": "Solubility in Lovaza (ethyl ester) Solvent System", "setting": "[2]", "result": 0.000, "unit": "mg/g"},
      {"measurement": "Solubility in PUFA Free Acid Solvent System", "setting": "[2]", "result": 42.357, "unit": "mg/g"},
      {"measurement": "Appearance of vial after sonication", "setting": "[2]; PUFA free acid solvent, 2 mL, after the addition of about 313 mg", "result": "still remained clear"}
    ]},
    {"smiles": "CC(C)c1nc(N(C)S(C)(=O)=O)nc(-c2ccc(F)cc2)c1/C=C/[C@@H](O)C[C@@H](O)CC(=O)[O-].CC(C)c1nc(N(C)S(C)(=O)=O)nc(-c2ccc(F)cc2)c1/C=C/[C@@H](O)C[C@@H](O)CC(=O)[O-].[Ca+2]", "note": "[Rosuvastatin Calcium, rosuvastatin calcium]", "values": [
      {"measurement": "Solubility", "setting": "[3]; 0.1N HCl (pH 1.2), T = 0", "result": 0.223},
      {"measurement": "Solubility", "setting": "[3]; 0.1N HCl (pH 1.2), T = 1 Week", "result": 0.104},
      {"measurement": "Solubility", "setting": "[3]; 0.1N NaOH, T = 0", "result": 8.058},
      {"measurement": "Solubility", "setting": "[3]; 0.1N NaOH, T = 1 Week", "result": 0.018},
      {"measurement": "Solubility", "setting": "[3]; Water, T = 0 (after sitting overnight)", "result": 7.08},
      {"measurement": "Solubility", "setting": "[3]; Water, T = 1 Week", "result": 8.822},
      {"measurement": "pH of maximal solubility", "setting": "[3]; aqueous pH buffers", "result": "~7.0"},
      {"measurement": "Aqueous solubility (in words)", "setting": "[3]; overall across aqueous solutions, rosuvastatin at time zero", "result": "significant aqueous solubility"},
      {"measurement": "Solubility", "setting": "[3]; pH 2.2 acid phthalate buffer, T = 0", "result": 0.773},
      {"measurement": "Solubility", "setting": "[3]; pH 2.2 acid phthalate buffer, T = 1 Week", "result": 9.343},
      {"measurement": "Solubility", "setting": "[3]; pH 4.0 acid phthalate buffer, T = 0", "result": 1.901},
      {"measurement": "Solubility", "setting": "[3]; pH 4.0 acid phthalate buffer, T = 1 Week", "result": 0.002},
      {"measurement": "Solubility", "setting": "[3]; pH 5.0 neutralized phthalate buffer, T = 0", "result": 4.188},
      {"measurement": "Solubility", "setting": "[3]; pH 5.0 neutralized phthalate buffer, T = 1 Week", "result": 4.790},
      {"measurement": "Solubility", "setting": "[3]; pH 7.0 phosphate buffer, T = 0", "result": 7.963},
      {"measurement": "Solubility", "setting": "[3]; pH 7.0 phosphate buffer, T = 1 Week", "result": 10.654},
      {"measurement": "Solubility", "setting": "[3]; pH 9.0 alkaline borate buffer, T = 0", "result": 4.571},
      {"measurement": "Solubility", "setting": "[3]; pH 9.0 alkaline borate buffer, T = 1 Week", "result": 4.712},
      {"measurement": "Statin in Oil", "setting": "[1]; t = 0", "result": 6.481, "unit": "mg/g"},
      {"measurement": "Statin in Oil, Percent", "setting": "[1]; t = 0", "result": 100, "unit": "%"},
      {"measurement": "Statin in Oil", "setting": "[1]; t = 1 week", "result": 6.416, "unit": "mg/g"},
      {"measurement": "Statin in Oil, Percent", "setting": "[1]; t = 1 week", "result": 100, "unit": "%"},
      {"measurement": "Statin in Oil", "setting": "[1]; t = 2 week", "result": 6.505, "unit": "mg/g"},
      {"measurement": "Statin in Oil, Percent", "setting": "[1]; t = 2 week", "result": 100, "unit": "%"},
      {"measurement": "Solubility in Lovaza (ethyl ester) Solvent System", "setting": "[2]", "result": 0.001, "unit": "mg/g"},
      {"measurement": "Solubility in PUFA Free Acid Solvent System", "setting": "[2]", "result": 12.700, "unit": "mg/g"},
      {"measurement": "Initial solubility in PUFA free acid solvent system, Concentration", "setting": "[4]", "result": 12.70, "unit": "mg/mL"}
    ]}
  ]
}
